Experimental data as given in publication PMC7096397, “Improving the drug-likeness of inspiring natural products - evaluation of the antiparasitic activity against Trypanosoma cruzi through semi-synthetic and simplified analogues of licarin A” (Scientific Reports, 2020).
Entries after “also recorded” stand apart in the source; their conditions may differ. Where two headings read alike, the source gives them in different places.

Tests used:
[1] = test system: T. cruzi intracellular amastigotes; experiment: Anti-amastigote assay in infected peritoneal macrophages (infection index); type: cell-based, Trypanosoma cruzi; settings: Trypanosoma cruzi, Peritoneal macrophage, in Mus musculus, 48 h, read-out: IC50 Ama
Procedure: (§1) The cells and parasites were kept at 37 °C in a humidified atmosphere containing 5% CO2.
The cells were plated on a 16-well chamber slide – NUNC (Thermo Fisher Scientific) at 1 × 10^5 cells/well and incubated for 24 h at 37 °C in a 5% CO2 humidified incubator. […] Tested compounds were subsequently incubated with infected macrophages for 48 h at 37 °C (5% CO2 humidified incubator) in different nontoxic concentrations. Benznidazole was used as standard drug. At the end of the assay, slides were fixed with MeOH and stained with Giemsa, counted under a light microscope (EVOS M5000, Thermo, USA) and IC50 values were determined by the infection index.
(§2) IC50 and CC50 values were calculated using a sigmoid dose-response curves in Graph–Pad Prism 5.0 software (GraphPad Software - San Diego, CA, USA). For the mechanism of action studies one-way ANOVA (Turkey’s Multiple Comparison test) was used for significance (p < 0.05). The assays were repeated at least twice and the samples were tested in duplicate.

[2] = Cytotoxicity against mammalian cells (MTT); type: cell-based, Murine; settings: mouse, NCTC clone L929 cells
Procedure: Rhesus monkey kidney cells (LLC-MK2-ATCC CCL 7) were used for the maintenance of trypomastigotes of T. cruzi (Y strain) using RPMI-1640 medium supplemented with 2% fetal bovine serum (FBS). The cells and parasites were kept at 37 °C in a humidified atmosphere containing 5% CO2. Peritoneal macrophages, used in the experiments of anti-amastigote assay, were obtained by washing the peritoneal cavity of BALB/c mice, with RPMI-1640 medium supplemented with 10% FBS and kept at 37 °C in a 5% CO2 humidified incubator. Murine conjunctive cells (NCTC clone 929, ATCC) and LLC-MK2 were kept in RPMI-1640 supplemented with 10% FBS at the same conditions described above.
NCTC cells-clone L929 (6 × 10^4 cells/well) were seeded and incubated with tested compounds (200–1.56 µM) for 48 h at 37 °C in a 5% CO2 humidified incubator. Cytotoxic concentration (CC50) was determined by MTT assay. Optical density was determined in FilterMax F5 (Molecular Devices) at 570 nm. Selectivity Index (SI) was determined using the following ratio: CC50 against NCTC cells/IC50 against parasites.
as §2

T. cruzi trypomastigotes [3] = experiment: Reactive oxygen species (ROS) generation, H2DCFDA probe; type: cell-based, Trypanosoma cruzi; settings: for ROS generation: at IC50, 1 h of treatment; for ROS levels: at IC50, 2 h of treatment
Procedure: After, H2DCFDA probe (Molecular Probes) was added (5 µM) and incubated by 15 min[44]. The fluorescence intensity was measure using a fluorimetric microplate reader (FilterMax F5 Multi-Mode, Molecular Devices) with excitation and emission wavelengths of 485 and 520 nm, respectively. Azide (10 mM) was used as positive control and untreated parasites were used as negative control.

T. cruzi trypomastigotes [4] = experiment: Plasma membrane permeability, Sytox Green probe; type: cell-based, Trypanosoma cruzi; settings: at IC50, up to 120 min, vs untreated parasites
Procedure: The action of compounds 1d, 1e, 3d and 4a in the cell membrane permeability were evaluated in T. cruzi trypomastigotes (2 × 10^6/well) seeded in 96-well black polystyrene microplates. Parasites were washed and incubated in the dark with 1 μM SYTOX Green probe (Molecular Probes) in HANKS’ balanced salts solution (HBSS; Sigma-Aldrich) supplemented with 10 mM D-Glucose (HBSS + Glu) in 96-well black polystyrene microplates[43],[44]. […] The maximum permeabilization was obtained with the addiction of 0.5% Triton X-100. Fluorescence intensities were determined using a fluorimetric microplate reader (FilterMax F5 Multi-Mode Microplate Reader-Molecular Devices) with excitation and emission wavelengths of 485 and 520 nm, respectively. The following internal controls were used in the evaluation: i) the background fluorescence of the compound at the respective wavelengths, ii) the possible interference of DMSO.

T. cruzi trypomastigotes [5] = experiment: Mitochondrial membrane potential, JC-1 flow cytometry; type: cell-based, Trypanosoma cruzi; settings: at IC50, 2 h
Procedure: The ΔΨm were analyzed by flow cytometry (Attune NxT flow cytometer - ThermoFisher) with the probe 5,5′,6,6′-tetrachloro-1,1′,3,3′-tetraethylbenzimidazole carbocyanide iodide (JC-1, ThermoFisher). The ratio between red/green fluorescence intensities (BL-2/BL-1; 590 nm/530 nm) were calculated[45],[46]. […] The parasites were incubated in the dark for 10 min at 37 °C and washed in HBSS + Glu to eliminate the non-internalized dye. As internal controls of the assay were used: (i) non-treated cells and (ii) trypomastigotes treated with 100 μM CCCP.

[6] = test system: T. cruzi (Y strain) trypomastigotes; experiment: Anti-trypomastigote assay (resazurin viability); type: cell-based, Trypanosoma cruzi; settings: Trypanosoma cruzi, read-out: IC50 trypo
Procedure: as §1
Benznidazole was used as the standard drug. The optical density was determined in FilterMax F5 (Molecular Devices) at 570 nm[38].
as §2

T. cruzi trypomastigotes [7] = experiment: ATP generation (luciferin/luciferase); type: cell-based, Trypanosoma cruzi; settings: at IC50, 2 h of incubation
Procedure: Untreated parasites and treated with the mitochondrial uncoupler CCCP (carbonyl cyanide m-chlorophenylhydrazone - Sigma) at 100 µM, were used as positive and negative controls, respectively. […] Luminescence intensity was measured using a luminometer (FilterMax F5 Multi-Mode, Molecular Devices) and the amount of ATP was calculated from an ATP standard curve.

PAMPA-BBB model = type: in vitro ADME
Procedure: The methodology herein applied was similar to that described in the previous section, however with the purpose of assessing the permeability of the compounds through the blood brain barrier (BBB). Thus, stock solutions (10 mM) of each test compound were prepared in DMSO and diluted with phosphate buffered saline (PBS) at pH 7.4. The final concentration of donor solutions was 300 μM and DMSO of 5%. Artificial membrane lipid solutions were prepared daily by dissolving, in n-dodecane, the porcine brain lipid extracted as described[40] at the final concentration of 2% (m/v). PAMPA procedure was similar to that described in the previous section although, in PAMPA-BBB, the donor and acceptor solutions were prepared using phosphate buffer saline (PBS) at pH 7.4 and the Papp was obtained through the equation previously reported.

[8] = PAMPA intestinal model (GIT); type: in vitro ADME
Procedure: Intestinal permeability of tested compounds was estimated applying the PAMPA model previously developed and validated. Briefly, stock solutions were prepared in dimethyl sulfoxide (DMSO) at the concentrations of 10 mM and then diluted with Tris buffer to give the final concentration donor solution at 300 µM and 5% DMSO. The assay procedure was initiated by filling each well of the microtiter plate (MultiScreen, catalogue no. MATRNPS50, Millipore Corporation, Bedford, MA, USA) with 300 μL of each donor drug solution. Carefully, and avoiding the pipette tip contact with the filter, the hydrophobic filter (0.45 μm) of each acceptor well of the 96-well microfilter plate (MultiScreen-IP, catalogue no. MAIPNTR10, Millipore Corporation, Bedford, MA, USA) was adsorbed with 6 μL of the artificial lipid solution which was composed of 2% of L-α-phosphatidylcholine from soybean dissolved, by sonication, in n-dodecane. Immediately after this application, 150 μL of Tris buffer containing 5% DMSO was added to the receiving well. The receiving well was mounted on the donor plate, keeping the underside of the membrane in contact with the donor solution. The assembled donor–acceptor plates were incubated under constant stirring (3 g) at 25 °C for approximately 16 h. Subsequently, the quantity of each compound presented at the receptor solution (150 μL) was determined by UV/VIS spectrophotometrically.

[9] = PAMPA intestinal model (GIT); type: in vitro ADME; settings: read-out: plasma protein binding percentage
[10] = intracellular amastigotes in BALB/c peritoneal macrophages
[11] = T. cruzi trypomastigotes, 24 h incubation, resazurin
[12] = PAMPA-BBB model, 300 µM donor, PBS pH 7.4, read-out: Papp BBB
[13] = PAMPA intestinal model, 300 µM donor, Tris buffer, 25 °C, 16 h, read-out: Papp GIT

Compound	IC50 [1, 10]	CC50 at 48 h [2]	ROS generation (T. cruzi trypomastigotes [3])	ROS levels (T. cruzi trypomastigotes [3])	Sytox Green fluorescence levels (plasma membrane permeability) (T. cruzi trypomastigotes [4])	mitochondrial membrane potential (T. cruzi trypomastigotes [5])	IC50 [6, 11]	ATP levels (T. cruzi trypomastigotes [7])	Papp at 16 h, 300 µM (PAMPA-BBB model; PAMPA, pH 7.4)	Papp at 16 h, 300 µM ([8]; PAMPA)	IC50 [1]	IC50 ([6]; 24 h)	fraction unbound at 16 h, 300 µM [9]	Papp at 16 h, 300 µM (PAMPA-BBB model; [12])	Papp at 16 h, 300 µM [8, 13]
C/C=C/c1cc(OC)c2c(c1)[C@H](C)[C@@H](c1cc(OC)c3oc(C)cc3c1)O2 [1e, 7-methoxy-5-[(2 S,3 S)-7-methoxy-3-methyl-5-[(E)-prop-1-enyl]-2,3-dihydrobenzofuran-2-yl]-2-methyl-benzofuran]	> 100 µM	> 200 µM	increased the reactive oxygen species (ROS) levels; also recorded: increased ROS generation	drop of the levels	exception of 1e after 120 min	induced hyperpolarization of mitochondrial membrane potential; also recorded: mitochondrial hyperpolarization, but with no statistical significance	10.5 ± 5.7 µM	no significant alterations in ATP levels	0.23 ×10⁻⁶ cm/s	0.55 ×10⁻⁶ cm/s	–	–	–	–	–
C/C=C/c1ccc(OC)c(OC)c1 [4a, 1,2-dimethoxy-4-[(E)-prop-1-enyl]benzene]	–	> 200 µM	increased the reactive oxygen species (ROS) levels; also recorded: increased ROS generation	drop of the levels	no changes in the fluorescence levels	–	–	increased ATP production	–	–	> 100 µM	8.8 ± 2 µM	< 0.1	1.29 ×10⁻⁶ cm/s	15.9 ×10⁻⁶ cm/s
COc1cc(CO)ccc1OC(C)=O [3b, [4-(hydroxymethyl)-2-methoxy-phenyl] acetate]	> 100 µM	45.8 ± 14.9 µM	increased ROS generation	drop of the levels	no changes in the fluorescence levels	mitochondrial hyperpolarization, but with no statistical significance	5.1 ± 0.7 µM	increased ATP production	3.67 ×10⁻⁶ cm/s	5.07 ×10⁻⁶ cm/s	–	–	–	–	–
C=CCc1ccc(O)c(OC)c1 [compound 5, eugenol]	–	> 200 µM	–	–	–	–	–	–	–	–	> 100 µM	> 100 µM	< 0.1	3.98 ×10⁻⁶ cm/s	14.4 ×10⁻⁶ cm/s
COc1ccc(C=O)cc1OC [2a, 3,4-dimethoxybenzaldehyde]	–	> 200 µM	–	–	–	–	–	–	–	–	> 100 µM	> 100 µM	< 0.1	7 ×10⁻⁶ cm/s	20.7 ×10⁻⁶ cm/s
C=CCc1cc(CO)cc(OC)c1O [3d, 2-allyl-4-(hydroxymethyl)-6-methoxy-phenol]	> 100 µM	> 200 µM	increased the reactive oxygen species (ROS) levels	–	–	induced hyperpolarization of mitochondrial membrane potential	> 100 µM	–	3.47 ×10⁻⁶ cm/s	3.47 ×10⁻⁶ cm/s	–	–	–	–	–
C=CCc1cc([C@H]2Oc3c(OC)cc(/C=C/C)cc3[C@@H]2C)cc(OC)c1O [1d, 2-allyl-6-methoxy-4-[(2S,3 S)-7-methoxy-3-methyl-5-[(E)-prop-1-enyl]-2,3-dihydrobenzofuran-2-yl]phenol]	> 100 µM	45.5 ± 16.7 µM	increased the reactive oxygen species (ROS) levels; also recorded: increased ROS generation	drop of the levels	no changes in the fluorescence levels	induced hyperpolarization of mitochondrial membrane potential; also recorded: mitochondrial hyperpolarization, but with no statistical significance	5 ± 0.8 µM	increased ATP production	0.28 ×10⁻⁶ cm/s	0.38 ×10⁻⁶ cm/s	–	–	–	–	–
